Source: PMC5736782, “The Differential Absorption of a Series of P-Glycoprotein Substrates in Isolated Perfused Lungs from Mdr1a/1b Genetic Knockout Mice can be Attributed to Distinct Physico-Chemical Properties: an Insight into Predicting Transporter-Mediated, Pulmonary Specific Disposition” (Pharmaceutical Research, 2017)

Key:
[1] = Immobilised artificial membrane (IAM) chromatography; format: physicochemical; details: extrapolated to 100% water; mean of four experiments
Experimental: IAM chromatography provided an experimental measure of substrate membrane affinity and phospholipid interaction. The IAM column (Regis Technologies Inc., Hichrom, Reading, UK; IAM.PC.DD2 10 cm x 4.6 mm ID column) was run under isocratic eluting conditions with the retention of all compounds determined under three mobile phase conditions: 10%, 20% and 30% acetonitrile in water, and from which the theoretical retention time in 100% water was calculated by linear regression. LogK^IAM values were calculated according to Eq. 2:2 LogK^IAM=LogTr−T0/T0
where Tr and T0 are respectively the retention times of the substrate in 100% water and of the unretained compound, i.e. eluting within the solvent front of 75 s in all experiments.

[2] = tested on: P-gp (Mdr1a/1b) in mouse intestinal segments; experiment: Ussing chamber intestinal permeability, ileal segments Mdr1a/1b (+/+) vs (−/−); details: for Mdr1a/1b (−/−) Permeability coefficient: P-gp knockout intestinal segments; for Mdr1a/1b (−/−) Permeability coefficient / Mdr1a/1b (+/+) Permeability coefficient: mucosal to serosal, 50 μM, 180 min; for Ratio Permeability (−/−): (+/+): intestinal Papp KO:WT; for Mdr1a/1b (+/+) Permeability coefficient: wild-type intestinal segments
Experimental: The bathing fluid for both mucosal and serosal surfaces (3 mL volume in each chamber) comprised oxygenated Krebs-Henseleit buffer maintained at 37°C (heating block) under stirred conditions (gas flow manifold). […] Any intestinal segments presenting an initial TEER of lower than 80 Ω.cm^2 were discarded prior to the experiment, likewise any segments whose TEER decreased by more than 10% over the course of the experiment were excluded.
Thereafter permeability coefficients were determined according to Eq. 4:4 ρ=dM/dt/A^∗C0

[3] = Multi-lamellar liposome vesicle (MLV) partitioning; format: physicochemical; details: (C0−CS)/C0, 1 μg/mL, 4 h, 37°C, PBS pH 7.4
Experimental: MLVs were formed as previously described ([20]). Briefly, solutions of 8 mg phosphatidylcholine and 2 mg phosphatidylglycerol in 10 mL chloroform were completely dried to a lipid film (rotation under vacuum).
These preparations were then incubated at 37°C for 4 h under shaking conditions to allow equilibration of compound between the lipid and aqueous fractions. The MLVs were then pelleted and 100 μL of supernatant removed for analysis by radiometric or LC-MS/MS methods as described above. Partitioning into the MLVs was determined according to Eq. 3:3 MLVpartitioning=C0−CS/C0
where C0 is the initial compound concentration (1 μg/mL) and CS is the compound concentration present in the aqueous supernatant at the end of 4 h incubation.

mouse Bcrp = target: T1, mouse Bcrp (Mus musculus, UniProt Q7TMS5); experiment: Gentest ABC transporter membrane ATPase assay; format: biochemical; details: for Vmax: ATPase, 0 indicates no enzyme turnover
T1 construct: purchased Corning (Gentest), Germany
T1 sequence (Q7TMS5 1-657): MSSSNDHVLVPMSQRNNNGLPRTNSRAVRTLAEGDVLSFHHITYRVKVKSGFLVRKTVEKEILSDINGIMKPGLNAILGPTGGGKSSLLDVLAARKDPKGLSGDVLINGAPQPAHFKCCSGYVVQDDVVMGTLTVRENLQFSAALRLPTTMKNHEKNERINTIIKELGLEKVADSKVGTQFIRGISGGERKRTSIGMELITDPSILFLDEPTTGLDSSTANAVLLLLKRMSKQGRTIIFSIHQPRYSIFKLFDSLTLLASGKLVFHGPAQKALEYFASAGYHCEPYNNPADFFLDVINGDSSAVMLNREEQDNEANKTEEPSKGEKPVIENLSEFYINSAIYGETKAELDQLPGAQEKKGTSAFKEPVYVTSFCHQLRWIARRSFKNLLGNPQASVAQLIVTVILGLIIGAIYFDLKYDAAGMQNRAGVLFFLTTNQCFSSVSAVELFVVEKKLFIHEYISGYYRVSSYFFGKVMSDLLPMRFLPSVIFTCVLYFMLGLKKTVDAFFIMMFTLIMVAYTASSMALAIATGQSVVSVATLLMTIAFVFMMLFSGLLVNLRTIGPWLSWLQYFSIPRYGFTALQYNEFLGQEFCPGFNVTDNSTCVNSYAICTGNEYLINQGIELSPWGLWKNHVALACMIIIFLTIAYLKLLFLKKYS
Text: (§1) The Gentest ATPase assay (Corning, Germany) was used to investigate the binding kinetics of the panel of P-gp substrates against membranes constituted to display human MDR1, mouse Mdr1a, mouse Mdr1b and mouse Bcrp. The assays measure the accumulation of inorganic phosphate (absorbance at 800 nm) produced in the breakdown of ATP to ADP. […] The assays were used in accordance with the manufacturer’s protocol to calculate (GraphPad Prism) the Michaelis-Menten parameters Km and VMAX. For the assay test compounds were serially diluted to produce an assay concentration range of 0–300 μM with the kinetics of ATP turnover examined over 30 min at 37°C.

[4] = tested on: P-glycoprotein (Mdr1a/Mdr1b) in isolated perfused mouse lung; experiment: Isolated perfused mouse lung (IPML) airway-to-perfusate absorption, Mdr1a/1b (+/+) vs (−/−); details: for Mdr1a/1b (+/+) ‘F’ estimate by model fit [95% CI) / Mdr1a/1b (-/-) ‘F’ estimate by model fit [95% CI) / Ratio AUCs (-/-) : (+/+) / Mdr1a/1b (+/+) % Deposited Dose absorbed / Mdr1a/1b (-/-) % Deposited Dose absorbed: male, mouse, 50 μM; for Mdr1a/1b (+/+) % Deposited Dose absorbed / Mdr1a/1b (-/-) % Deposited Dose absorbed: 30 min
Experimental: The atria and the lower half of the heart were cut to allow the free flow of perfusate. The lungs were removed and suspended vertically in a custom water-jacketed glass thorax (Radleys, Essex, UK) maintained at 37°C.
Following dosing of compound into the IPML airways serial samples (250 μL) were collected for bioanalysis from the 10 mL recirculating perfusate reservoir. Each sample collected from the reservoir was replaced with an equal volume of fresh warmed, oxygenated perfusate. Upon termination of the experiment the dose solutions, apparatus washings and perfusate samples were collected for mass balance calculations enabling determination of the actual total dose delivered to the lungs.
Radioactive compounds were directly analysed by liquid scintillation counting. Volumes of 50 μL perfusate samples were mixed with 3 mL of Scintisafe 3 Liquid Scintillation Fluid (Fisher, UK) and transferred to vials for scintillation counting using a TriCarb 2900TR (Packard Bioscience, USA).
After accounting for the mass of compound removed at each sample point, plots of the cumulative ‘%deposited dose absorbed’ versus ‘time’ were generated and subject to nonlinear regression analysis according to a first-order absorption one-compartment accumulating model (Eq. 1) to generate estimates for the extent (F) and rate (Ka) of absorption from the IPML airways to the recirculating perfusate.
The data was also subject to standard non-compartmental analysis, specifically Area Under Curve (AUC0–30 min) of ‘%deposited dose absorbed’ versus ‘time’ (units: %Dose.min) and reflecting for the exclusively accumulating perfusate ‘compartment’ the exposure arising from the IPML absorption process alone.

mouse Mdr1b = mouse Mdr1b (Mus musculus, UniProt P06795); experiment: Gentest ABC transporter membrane ATPase assay; details: 0–300 μM, 30 min, 37°C
mouse Mdr1b, sequence (P06795 whole entry): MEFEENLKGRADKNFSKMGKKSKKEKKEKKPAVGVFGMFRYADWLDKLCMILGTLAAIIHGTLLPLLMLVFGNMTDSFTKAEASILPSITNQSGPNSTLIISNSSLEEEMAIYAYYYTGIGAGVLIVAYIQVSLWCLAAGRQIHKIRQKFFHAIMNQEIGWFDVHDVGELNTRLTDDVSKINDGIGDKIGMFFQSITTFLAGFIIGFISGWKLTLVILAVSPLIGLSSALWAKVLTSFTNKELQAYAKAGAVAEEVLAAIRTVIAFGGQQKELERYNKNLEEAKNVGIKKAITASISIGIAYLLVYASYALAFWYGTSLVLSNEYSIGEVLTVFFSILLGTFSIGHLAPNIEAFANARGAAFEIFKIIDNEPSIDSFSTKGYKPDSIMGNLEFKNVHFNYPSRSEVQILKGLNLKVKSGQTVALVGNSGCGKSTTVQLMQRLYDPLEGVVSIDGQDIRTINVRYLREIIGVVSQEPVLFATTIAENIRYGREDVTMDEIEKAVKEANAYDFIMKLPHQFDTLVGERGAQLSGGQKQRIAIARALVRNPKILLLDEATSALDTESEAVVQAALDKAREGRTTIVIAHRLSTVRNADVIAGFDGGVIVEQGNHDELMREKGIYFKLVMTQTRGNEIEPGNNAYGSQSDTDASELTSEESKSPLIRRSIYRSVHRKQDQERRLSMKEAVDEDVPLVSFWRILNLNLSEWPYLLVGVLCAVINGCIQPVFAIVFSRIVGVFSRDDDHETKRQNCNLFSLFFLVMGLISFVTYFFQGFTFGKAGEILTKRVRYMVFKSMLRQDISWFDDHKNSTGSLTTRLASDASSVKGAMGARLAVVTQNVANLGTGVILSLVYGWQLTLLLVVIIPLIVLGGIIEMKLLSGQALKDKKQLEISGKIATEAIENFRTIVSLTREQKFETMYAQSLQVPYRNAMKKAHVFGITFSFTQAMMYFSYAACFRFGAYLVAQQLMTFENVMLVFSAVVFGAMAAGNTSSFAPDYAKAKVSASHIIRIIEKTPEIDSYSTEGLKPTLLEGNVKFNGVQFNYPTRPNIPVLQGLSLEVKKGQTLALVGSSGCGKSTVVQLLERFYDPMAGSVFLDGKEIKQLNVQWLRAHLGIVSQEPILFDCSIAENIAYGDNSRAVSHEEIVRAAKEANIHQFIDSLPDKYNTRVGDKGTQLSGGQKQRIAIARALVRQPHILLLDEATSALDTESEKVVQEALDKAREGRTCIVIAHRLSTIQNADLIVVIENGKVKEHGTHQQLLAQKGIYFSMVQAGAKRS
Text: as §1

mouse Mdr1a = mouse Mdr1a (Mus musculus, UniProt P21447); experiment: Gentest ABC transporter membrane ATPase assay; details: 0–300 μM, 30 min, 37°C
mouse Mdr1a, sequence (P21447 whole entry): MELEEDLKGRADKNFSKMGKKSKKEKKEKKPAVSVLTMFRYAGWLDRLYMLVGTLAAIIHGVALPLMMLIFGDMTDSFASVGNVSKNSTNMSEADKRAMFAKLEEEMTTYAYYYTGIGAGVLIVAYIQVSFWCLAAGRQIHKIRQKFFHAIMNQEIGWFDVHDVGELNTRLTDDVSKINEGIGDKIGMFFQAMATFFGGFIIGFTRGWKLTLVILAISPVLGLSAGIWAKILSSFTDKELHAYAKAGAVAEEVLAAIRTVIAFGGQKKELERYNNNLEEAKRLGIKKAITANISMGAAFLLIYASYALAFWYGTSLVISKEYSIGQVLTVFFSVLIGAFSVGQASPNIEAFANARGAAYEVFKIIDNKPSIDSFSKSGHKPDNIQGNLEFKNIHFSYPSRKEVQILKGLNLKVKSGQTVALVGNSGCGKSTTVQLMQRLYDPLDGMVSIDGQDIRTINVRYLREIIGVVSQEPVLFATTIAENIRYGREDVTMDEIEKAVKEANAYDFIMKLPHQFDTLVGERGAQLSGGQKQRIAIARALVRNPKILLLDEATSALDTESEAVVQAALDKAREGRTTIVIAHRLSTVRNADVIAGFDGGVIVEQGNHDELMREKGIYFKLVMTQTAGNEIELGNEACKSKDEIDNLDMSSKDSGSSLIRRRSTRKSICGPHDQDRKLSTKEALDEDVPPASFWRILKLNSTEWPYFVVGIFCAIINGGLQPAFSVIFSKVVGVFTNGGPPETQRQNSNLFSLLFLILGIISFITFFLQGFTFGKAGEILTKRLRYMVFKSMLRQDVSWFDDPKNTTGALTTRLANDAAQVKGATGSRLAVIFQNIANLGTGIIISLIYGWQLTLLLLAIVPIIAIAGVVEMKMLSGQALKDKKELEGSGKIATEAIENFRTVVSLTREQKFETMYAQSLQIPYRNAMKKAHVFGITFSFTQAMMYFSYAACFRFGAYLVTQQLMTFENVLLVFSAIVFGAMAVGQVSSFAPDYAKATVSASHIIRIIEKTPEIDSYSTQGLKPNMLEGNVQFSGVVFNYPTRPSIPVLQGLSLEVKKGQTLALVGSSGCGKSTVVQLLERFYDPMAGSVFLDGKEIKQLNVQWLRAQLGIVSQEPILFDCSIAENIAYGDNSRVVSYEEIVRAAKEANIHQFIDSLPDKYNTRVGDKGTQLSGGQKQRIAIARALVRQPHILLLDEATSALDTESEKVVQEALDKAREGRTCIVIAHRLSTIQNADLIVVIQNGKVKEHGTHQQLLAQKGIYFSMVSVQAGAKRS
Text: as §1

human MDR1 = human MDR1 (Homo sapiens, UniProt P08183); experiment: Gentest ABC transporter membrane ATPase assay; details: ATPase, 0–300 μM, 30 min, 37°C
human MDR1, sequence (P08183 whole entry): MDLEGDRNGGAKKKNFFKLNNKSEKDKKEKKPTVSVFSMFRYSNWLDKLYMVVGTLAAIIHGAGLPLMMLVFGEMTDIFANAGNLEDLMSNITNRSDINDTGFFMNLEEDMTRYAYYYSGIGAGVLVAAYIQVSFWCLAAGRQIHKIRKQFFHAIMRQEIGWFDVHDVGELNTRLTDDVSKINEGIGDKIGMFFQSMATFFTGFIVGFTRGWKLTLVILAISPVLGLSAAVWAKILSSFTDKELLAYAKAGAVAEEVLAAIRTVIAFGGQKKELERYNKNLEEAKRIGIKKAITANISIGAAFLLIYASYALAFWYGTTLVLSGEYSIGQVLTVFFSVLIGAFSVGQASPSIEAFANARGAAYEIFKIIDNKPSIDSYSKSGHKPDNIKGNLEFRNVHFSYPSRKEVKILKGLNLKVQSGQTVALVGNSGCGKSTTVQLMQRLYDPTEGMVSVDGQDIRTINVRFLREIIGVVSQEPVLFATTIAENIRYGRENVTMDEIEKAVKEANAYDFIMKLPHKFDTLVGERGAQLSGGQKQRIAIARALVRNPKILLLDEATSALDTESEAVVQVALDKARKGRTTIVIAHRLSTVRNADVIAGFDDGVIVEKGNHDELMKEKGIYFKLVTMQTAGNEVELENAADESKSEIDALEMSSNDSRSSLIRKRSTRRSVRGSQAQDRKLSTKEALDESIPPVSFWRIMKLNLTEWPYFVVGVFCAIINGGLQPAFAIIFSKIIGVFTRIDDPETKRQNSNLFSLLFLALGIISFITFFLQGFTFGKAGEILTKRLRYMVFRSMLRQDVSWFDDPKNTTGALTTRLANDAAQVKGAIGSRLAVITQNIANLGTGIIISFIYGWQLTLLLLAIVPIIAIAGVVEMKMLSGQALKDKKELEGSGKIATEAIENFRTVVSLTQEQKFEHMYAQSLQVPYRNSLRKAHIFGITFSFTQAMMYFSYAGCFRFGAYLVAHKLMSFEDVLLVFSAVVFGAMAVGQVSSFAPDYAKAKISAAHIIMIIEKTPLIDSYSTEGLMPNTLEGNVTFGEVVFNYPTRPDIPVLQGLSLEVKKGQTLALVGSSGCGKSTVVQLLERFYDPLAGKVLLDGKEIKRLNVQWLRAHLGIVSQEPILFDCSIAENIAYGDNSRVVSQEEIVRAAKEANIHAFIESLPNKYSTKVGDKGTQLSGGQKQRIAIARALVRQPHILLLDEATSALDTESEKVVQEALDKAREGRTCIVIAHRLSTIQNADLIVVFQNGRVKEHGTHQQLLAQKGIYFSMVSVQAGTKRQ
Text: as §1

[5] = design: method as in PMID 12761811; details: nebulised solutions, anaesthetised rats, cited from earlier work

## CCN(CC)CCCC(C)Nc1ccnc2cc(Cl)ccc12 (centres unmarked) [Chloroquine, chloroquine]
[1]
  LogK^IAM: 1.43
[2]
  Mdr1a/1b (−/−) Permeability coefficient: 23.39 ± 4.18 cm/s (x10^−6)

## O=c1[nH]c2ccccc2n1CCCN1CCC(n2c(=O)[nH]c3cc(Cl)ccc32)CC1 [Domperidone, domperidone]
[1]
  LogK^IAM: 1.33
[3]
  MLV Partitioning: 0.92

## CN1CCC[C@@H]1Cc1c[nH]c2ccc(CCS(=O)(=O)c3ccccc3)cc12 [Eletriptan, eletriptan]
[1]
  LogK^IAM: 1.46
Mouse Bcrp
  Vmax: 0 µM/min
[4]
  Group (impact of Mdr1a/1b knockout on IPML absorption): GROUP B
  Mdr1a/1b (+/+) ‘F’ estimate by model fit [95% CI): 18.5 [16.5 to 20.5]
  Mdr1a/1b (-/-) ‘F’ estimate by model fit [95% CI): 25.8 [23.6 to 27.9]
  Ratio AUCs (-/-) : (+/+): 1.39
  Mdr1a/1b (+/+) % Deposited Dose absorbed: 17.9%
  Mdr1a/1b (-/-) % Deposited Dose absorbed: 26.6%
[3]
  MLV Partitioning: 0.94
[2]
  Mdr1a/1b (−/−) Permeability coefficient: 11.04 ± 2.17 cm/s (x10^−6)
  Ratio Permeability (−/−): (+/+): 2.26
  Mdr1a/1b (+/+) Permeability coefficient: 4.90 ± 2.51 cm/s (x10^−6)

## CC[C@H]1OC(=O)[C@H](C)[C@@H](O[C@H]2C[C@@](C)(OC)[C@@H](O)[C@H](C)O2)[C@H](C)[C@@H](O[C@@H]2O[C@H](C)C[C@H](N(C)C)[C@H]2O)[C@](C)(O)C[C@@H](C)C(=O)[C@H](C)[C@@H](O)[C@]1(C)O [Erythromycin, erythromycin]
Mouse Mdr1b
  Vmax: 48.5 µM/min
[1]
  LogK^IAM: 0.88
Mouse Bcrp
  Vmax: 0 µM/min
[4]
  Group (impact of Mdr1a/1b knockout on IPML absorption): GROUP A
  Mdr1a/1b (+/+) % Deposited Dose absorbed: 55.5%
  Mdr1a/1b (-/-) % Deposited Dose absorbed: 54.1%
Mouse Mdr1a
  Vmax: 28.4 µM/min
[3]
  MLV Partitioning: 0.46
[2]
  Mdr1a/1b (−/−) Permeability coefficient: 13.70 ± 4.54 cm/s (x10^−6)
  Mdr1a/1b (+/+) Permeability coefficient: 3.02 ± 1.15 cm/s (x10^−6)

## CCc1cc2c(cc1CC)CC(NC[C@H](O)c1ccc(O)c3[nH]c(=O)ccc13)C2 [Indacaterol, indacaterol]
Mouse Mdr1b
  Vmax: 132 µM/min
[1]
  LogK^IAM: 1.23
Mouse Bcrp
  Vmax: 0 µM/min
Human MDR1
  Vmax: 81.1 µM/min
[4]
  Group (impact of Mdr1a/1b knockout on IPML absorption): GROUP B
  Mdr1a/1b (+/+) ‘F’ estimate by model fit [95% CI): 29.3 [25.5 to 33.1]
  Mdr1a/1b (-/-) ‘F’ estimate by model fit [95% CI): 40.6 [36.7 to 44.5]
  Ratio AUCs (-/-) : (+/+): 1.37
  Mdr1a/1b (+/+) % Deposited Dose absorbed: 27.6%
  Mdr1a/1b (-/-) % Deposited Dose absorbed: 37.3%
Mouse Mdr1a
  Vmax: 119 µM/min
[3]
  MLV Partitioning: 0.92
[2]
  Mdr1a/1b (−/−) Permeability coefficient: 29.22 ± 4.40 cm/s (x10^−6)
  Ratio Permeability (−/−): (+/+): 1.92
  Mdr1a/1b (+/+) Permeability coefficient: 15.2 ± 2.79 cm/s (x10^−6)

## O=C1c2c(O)ccc(O)c2C(=O)c2c(NCCNCCO)ccc(NCCNCCO)c21 [Mitoxantrone, mitoxantrone]
Mouse Mdr1b
  Vmax: 35.0 µM/min
[1]
  LogK^IAM: 1.13
Mouse Bcrp
  Vmax: 4.79 µM/min
Mouse Bcrp; mouse Bcrp membrane model
  interaction with Bcrp (ATP turnover): showed evidence of interactions with Bcrp
[4]
  Group (impact of Mdr1a/1b knockout on IPML absorption): GROUP A
  Mdr1a/1b (+/+) ‘F’ estimate by model fit [95% CI): 26.4 [21.9 to 30.9]
  Mdr1a/1b (-/-) ‘F’ estimate by model fit [95% CI): 24.9 [20.8 to 28.9]
  Mdr1a/1b (+/+) % Deposited Dose absorbed: 25.1%
  Mdr1a/1b (-/-) % Deposited Dose absorbed: 23.3%
Mouse Mdr1a
  Vmax: 27.5 µM/min
[3]
  MLV Partitioning: 0.59
[2]
  Mdr1a/1b (−/−) Permeability coefficient: 13.70 ± 2.69 cm/s (x10^−6)
  Mdr1a/1b (+/+) Permeability coefficient: 4.69 ± 1.06 cm/s (x10^−6)

## COc1ccc(C[C@H](N)C(=O)N[C@H]2[C@@H](O)[C@H](n3cnc4c(N(C)C)ncnc43)O[C@@H]2CO)cc1 [Puromycin, puromycin]
Mouse Mdr1b
  Vmax: 31.5 µM/min
[1]
  LogK^IAM: 1.31
Mouse Bcrp
  Vmax: 0 µM/min
Human MDR1
  Vmax: 19.6 µM/min
[4]
  Group (impact of Mdr1a/1b knockout on IPML absorption): GROUP A
  Mdr1a/1b (+/+) ‘F’ estimate by model fit [95% CI): 48.2 [43.7 to 52.8]
  Mdr1a/1b (-/-) ‘F’ estimate by model fit [95% CI): 56.1 [48.1 to 64.1]
  Ratio AUCs (-/-) : (+/+): 1.01
  Mdr1a/1b (+/+) % Deposited Dose absorbed: 46.9%
  Mdr1a/1b (-/-) % Deposited Dose absorbed: 49.3%
Mouse Mdr1a
  Vmax: 16.5 µM/min
[3]
  MLV Partitioning: 0.62
[2]
  Mdr1a/1b (−/−) Permeability coefficient: 14.95 ± 2.33 cm/s (x10^−6)
  Ratio Permeability (−/−): (+/+): 2.56
  Mdr1a/1b (+/+) Permeability coefficient: 5.83 ± 2.38 cm/s (x10^−6)

## OCc1cc(C(O)CNCCCCCCOCCCCc2ccccc2)ccc1O (centres unmarked) [Salmeterol, salmeterol]
Mouse Mdr1b
  Vmax: 38.2 µM/min
[1]
  LogK^IAM: 1.60
Mouse Bcrp
  Vmax: 0 µM/min
Human MDR1
  Vmax: 24.4 µM/min
[4]
  Group (impact of Mdr1a/1b knockout on IPML absorption): GROUP B
  Mdr1a/1b (+/+) ‘F’ estimate by model fit [95% CI): 42.9 [34.6 to 47.2]
  Mdr1a/1b (-/-) ‘F’ estimate by model fit [95% CI): 57.3 [48.3 to 66.3]
  Ratio AUCs (-/-) : (+/+): 1.37
  Mdr1a/1b (+/+) % Deposited Dose absorbed: 36.7%
  Mdr1a/1b (-/-) % Deposited Dose absorbed: 48.7%
Mouse Mdr1a
  Vmax: 27.5 µM/min
[3]
  MLV Partitioning: 0.80
[2]
  Mdr1a/1b (−/−) Permeability coefficient: 18.33 ± 2.38 cm/s (x10^−6)
  Ratio Permeability (−/−): (+/+): 1.16
  Mdr1a/1b (+/+) Permeability coefficient: 15.8 ± 2.16 cm/s (x10^−6)

## CCCCc1nc(Cl)c(CO)n1Cc1ccc(-c2ccccc2-c2nn[nH]n2)cc1 [losartan]
[5]; mM concentrations
  extent of pulmonary absorption: 92%
[5]
  t^1/2absorption: 5 min
